Measured values reported in the supplement of paper PMC10307832.

Tests used:
Test in all cases: relative viability (nuclei count vs DMSO), 5 days (fraction); higher = more cells survive
[1] = compound: COc1cccc2c1C(=O)c1c(O)c3c(c(O)c1C2=O)C[C@@](O)(C(=O)CO)C[C@@H]3O[C@H]1C[C@H](N)[C@H](O)[C@H](C)O1 [Doxorubicin] + CC(C)C[C@H](NC(=O)[C@H](Cc1ccccc1)NC(=O)c1cnccn1)B(O)O [Bortezomib] (partner 0.002 µM)
How it was run: (§1)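 Dosing by pin tool came one day after lung cancer cell lines were seeded in 1536-well plates, using either one drug or a fixed anchor-drug dose plus five library-drug doses (not always all listed) in √10 steps. After 5 days, nuclei were counted on 4× images. Relative viability is treated-well nuclei count divided by vehicle-well nuclei count, and values are medians of duplicate plates.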

[2] = compound: COC1=C(C=C(C=C1)C2=CC3=NC=CN3C(=N2)NC4=C(C=CC=N4)C(=O)N)OC [BAY61-3606] + Cc1nc(NC(=O)N2CCC[C@H]2C(N)=O)sc1-c1ccnc(C(C)(C)C(F)(F)F)c1 [Alpelisib] (partner 2 µM)
How it was run: as §1

[3] = compound: COC1=C(C=C(C=C1)C2=CC3=NC=CN3C(=N2)NC4=C(C=CC=N4)C(=O)N)OC [BAY61-3606]
How it was run: (§2)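 Viability was defined as treated-well nuclei divided by vehicle-well nuclei, with the median taken over replicate plates. Cells from lung cancer lines sat overnight at 37 °C in 1536-well plates, received five √10-spaced library-drug doses by pinning on vehicle-anchored plates, and grew 5 days without medium change before one-step fixation, permeabilisation and Hoechst staining, 4× imaging and MetaXpress nuclear counts. Only plates with control CV under 25% and at least one doubling were kept.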

[4] = compound: COc1cccc2c1C(=O)c1c(O)c3c(c(O)c1C2=O)C[C@@](O)(C(=O)CO)C[C@@H]3O[C@H]1C[C@H](N)[C@H](O)[C@H](C)O1 [Doxorubicin]
How it was run: as §2

Row | Cell Line | relative viability ([1]; first compound 0.001 µM) | relative viability ([1]; first compound 0.003162 µM) | relative viability ([1]; first compound 0.01 µM) | relative viability ([1]; first compound 0.03162 µM) | relative viability ([1]; first compound 0.1 µM) | relative viability ([2]; first compound 0.02 µM) | relative viability ([2]; first compound 0.06325 µM) | relative viability ([2]; first compound 0.2 µM) | relative viability ([2]; first compound 0.6325 µM) | relative viability ([2]; first compound 2 µM) | relative viability ([3]; 0.02 µM) | relative viability ([3]; 0.06325 µM) | relative viability ([3]; 0.2 µM) | relative viability ([3]; 0.6325 µM) | relative viability ([3]; 2 µM) | relative viability ([4]; 0.001 µM) | relative viability ([4]; 0.003162 µM) | relative viability ([4]; 0.01 µM) | relative viability ([4]; 0.03162 µM) | relative viability ([4]; 0.1 µM)
1 | NCI-H1993 | 1.1 | 0.945 | 1.06 | 0.634 | 0.439 | 0.644 | 0.674 | 0.719 | 0.758 | 0.703 | 0.958 | 0.896 | 0.818 | 0.97 | 0.806 | 0.967 | 0.927 | 1.01 | 0.819 | 0.749
2 | CAL-12T | 1.01 | 1.06 | 0.853 | 0.567 | 0.307 | 1.21 | 1.28 | 1.11 | 1.4 | 0.607 | 1.02 | 1.07 | 0.938 | 0.99 | 0.628 | 0.973 | 1.05 | 0.926 | 0.541 | 0.349
3 | NCI-H1623 |  |  |  |  |  |  |  |  |  |  | 0.892 | 0.891 | 0.911 | 0.953 | 0.927 | 0.934 | 0.968 | 0.965 | 0.947 | 0.992
4 | HCC-78 | 0.322 | 0.532 | 0.419 | 0.392 | 0.562 | 0.405 | 0.366 | 0.453 | 0.362 | 0.358 | 1.04 | 0.934 | 0.973 | 0.985 | 1.08 | 1 | 0.999 | 0.851 | 0.955 | 0.954
5 | EKVX | 0.956 | 1.04 | 1.06 | 0.994 | 0.591 | 0.916 | 0.886 | 0.89 | 0.981 | 0.744 | 1.04 | 1 | 0.884 | 1.07 | 0.99 | 1.01 | 1.03 | 0.963 | 0.951 | 0.902
6 | NCI-H2170 |  |  |  |  |  | 0.775 | 0.869 | 0.801 | 0.857 | 0.512 | 0.983 | 0.978 | 0.974 | 1.03 | 0.932 | 0.973 | 0.992 | 0.93 | 0.799 | 1.02
7 | SK-MES-1 |  |  |  |  |  | 1.02 | 0.968 | 1 | 0.986 | 0.7 | 1.02 | 0.994 | 0.974 | 1.06 | 0.891 | 0.997 | 1.06 | 0.906 | 0.594 | 0.542
8 | NCI-H1944 |  |  |  |  |  | 0.911 | 0.867 | 0.842 | 0.703 | 0.505 | 1.08 | 1 | 0.95 | 0.785 | 0.619 | 0.929 | 1.02 | 0.902 | 0.692 | 0.802
9 | ChaGo-K-1 | 1.16 | 0.832 | 0.948 | 0.47 | 0.319 |  |  |  |  |  | 0.97 | 0.942 | 0.918 | 0.949 | 0.945 | 1.06 | 1.09 | 0.923 | 0.892 | 0.563
10 | NCI-H2342 |  |  |  |  |  |  |  |  |  |  | 0.966 | 1.02 | 0.908 | 0.966 | 1.15 | 0.938 | 1.03 | 0.929 | 0.763 | 0.877
11 | SW 900 |  |  |  |  |  |  |  |  |  |  | 0.895 | 0.762 | 0.678 | 0.937 | 0.813 | 0.671 | 0.992 | 0.774 | 0.665 | 0.404
12 | NCI-H1793 |  |  |  |  |  | 0.817 | 0.782 | 0.64 | 0.882 | 0.839 | 0.964 | 1.02 | 0.786 | 1.08 | 1.03 |  | 1.18 | 0.863 | 0.731 | 0.901
13 | NCI-H1648 |  |  |  |  |  |  |  |  |  |  | 0.832 | 0.89 | 1.16 | 0.74 | 0.804 | 0.898 | 1.07 | 0.719 | 0.864 | 0.882
14 | NCI-H522 |  |  |  |  |  |  |  |  |  |  | 0.961 | 0.907 | 0.953 | 0.954 | 0.933 | 0.741 | 0.938 | 0.988 | 0.838 | 0.894
15 | LK-2 |  |  |  |  |  | 1.11 | 0.874 | 1.17 | 1.15 | 0.996 | 1.08 | 0.939 | 1.06 | 1.09 | 0.923 | 0.903 | 1.08 | 0.829 | 0.788 | 1.08
16 | NCI-H1395 |  |  |  |  |  | 1.16 | 0.957 | 1.07 | 1.04 | 0.97 | 1.02 | 0.811 | 0.826 | 0.895 | 0.811 | 0.919 | 1.05 | 1.02 | 0.891 | 0.629
17 | A549 |  |  |  |  |  | 0.81 | 0.658 | 0.846 | 0.718 | 0.573 | 1.01 | 1.07 | 0.959 | 1.05 | 0.857 | 1 | 0.991 | 0.869 | 0.395 | 0.503
18 | NCI-H358 |  |  |  |  |  | 0.996 | 0.753 | 0.732 | 0.643 | 0.228 | 0.954 | 0.947 | 0.87 | 0.864 | 0.369 | 0.975 | 1.04 | 0.761 | 0.235 | 0.199
19 | NCI-H1650 | 0.215 | 0.185 | 0.187 | 0.185 | 0.168 |  |  |  |  |  | 1.06 | 0.883 | 0.964 | 1.11 | 0.527 | 0.823 | 0.809 | 0.481 | 0.255 | 0.159
